Key:
Format in all cases: in vivo
[1] = system: 5-HT2A receptor activation; assay: Motor activity and overt stereotypies during minipump dosing; conditions: psilocybin minipump, 12 days, rats
Method: There were no changes in motor activity (distance travelled, rearing counts), or induction of overt stereotypies, including cardinal signs of 5-HT2A receptor activation (Wet Dog Shakes and Back Muscle Contractions (WDS, BMD). At the completion of 12 days testing the rats were euthanized and cardiac and brain tissue were collected and snap frozen. Histological analysis was performed for the samples.

5-HT2A receptor activity = assay: Dose finding: behavioral syndrome, wet dog shakes (WDS) and back muscle contractions (BMC); conditions: rats
Method: Psilocybin was tested at a dose range of 0.03-10.0 mg/kg administered subcutaneously (S.C.) Behavioral syndrome including wet dog shakes (WDS) and back muscle contractions (BMC) are characteristic of 5-HT2A receptor activity and potentially indicative of psychomotor signs. […] There is a parallel between behaviors such as WDS in rats and hallucination in humans (Behavioral Neurobiology of Psychedelic Drugs, Halberstadt, Adam, Vollenweider, Franz X., Nichols, David E. (Eds.), Springer, 2018, p 161).

Long Evans rats = assay: Progressive ratio (PR) test, Study A; conditions: for food responding: low responder subgroup
Method: General: Experiments were conducted to test psilocybin doses in the range of 0.01-0.2 mg/kg psilocybin administered S.C. across progressive ratio (PR) and 5-choice serial reaction time task (5CSRTT) to examine the effect of psilocybin on endophenotypes of motivation and attention. In each study, a population of out-bred Long Evans rats was first tested as a group for response to the PR and 5CSRTT. Each group was then divided into subgroups by tertiles according to performance, and then exposed to various dose levels immediately prior to re-testing at various psilocybin dose levels.
The PR test is used to answer how willing the test subject is to work for food (i.e. test of motivation). A single 45 mg food pellet (i.e. reinforcer) is made available to the test animal based on lever press response. To obtain each successive pellet, the animal must make increasingly more lever presses. Typically, a progression of 2, 4, 6, 9, 12, 15, 20, 25, 32, 40, 50, 62, 77, 95, 118, etc. is used, derived from the equation:
ratio=[5×e^(0.2×reinforcer #)−5]
At some point, the animal gives up as the motor demands to obtain a single pellet are not deemed worthwhile (i.e. animal reaches “break point” defined as animal's failure to earn a food pellet in 20 minutes).
Study A: Psilocybin was administered to rats S.C. at doses of 0.05, 0.1 and 0.2 mg/kg.
Rats were then sub-grouped into tertiles based on the number of lever presses for food at baseline, so that within the test population of 36 animals, 12 animals were identified as low responders, characterized by low motivation and potentially corresponding to low motivation endophenotype representative of clinical depression. Twelve animals were identified as high responders. There was a statistically significant difference between the high and low responders. […] This represents a motivational enhancing effect of psilocybin at the 0.05 mg/kg dose in the cohort corresponding to a low motivation endophenotype representative of clinical depression.

For `CN(C)CCc1c[nH]c2cccc(OP(=O)(O)O)c12` [psilocybin, 4-phosphoryloxy-N,N-dimethyltryptamine], the “motor activity (distance travelled, rearing counts), overt stereotypies incl. WDS and BMC” value [1] was “no changes”, the “signs of behavioral syndrome (WDS/BMC)” value (5-HT2A receptor activity; 0.3 mg/kg I.P and higher) was “significant signs of behavior syndrome” and the “signs of behavioral syndrome (WDS/BMC)” value (5-HT2A receptor activity; 0.03-0.1 mg/kg S.C.) was “no signs of behavioral syndrome”. For the same molecule, the food responding (Long Evans rats; 0.05 mg/kg) was “increase in food responding”, the “number of lever presses and break point” value (Long Evans rats; 0.05 mg/kg, low responders, P<0.05 vs. vehicle) was “significant increase” and the session duration (Long Evans rats; 0.05 mg/kg, low responders, P=0.07 vs. vehicle) was 10.8 ± 1.9 min. The food responding (Long Evans rats; 0.1 mg/kg) was “did not produce an increase in food responding”, the “number of lever presses or break points” value (Long Evans rats; 0.05, 0.1 and 0.2 mg/kg S.C., entire study population of 36 rats) was “None of these doses were observed to cause obvious changes” and the “response in PR test” value (Long Evans rats; 0.05-0.2 mg/kg S.C., high responder subgroup) was “no effect on response”.
